Reference: US20250049929A1, “NOVEL TETRAHYDROQUINOLINES AND PROTEOLYSIS TARGETING CHIMERA (PROTACS) COMPRISING THEM AS DEGRADERS OF SMARCA” (Boehringer Ingelheim International GmbH, priority 2021, published 2025)

Experiments:
SMARCA4 = biological target: T1, SMARCA4 (Homo sapiens, UniProt P51532); experiment: SMARCA4 degradation analysis by imaging in RKO cells (DC50 A4); format: cell-based; conditions: tables 69, 70, 73, 76-78
T1 construct: endogenous in cells; host or cells: RKO cells (CRL-2577, ATCC)
Experimental: (§1) Determination of SMARCA2 and SMARCA4 Degradation (DC50 A2 and A4 [nM])
(§2) Protein Degradation Assays for SMARCA2 and SMARCA4
(§3) For degradation analysis by imaging, 1250 RKO cells (CRL-2577, ATCC) per well were seeded into 60 μL DMEM (Sigma Aldrich) supplemented with 10% FBS (Hyclone) in 384-well flat bottom plates (CellCarrier Ultra, Perkin Elmer) and incubated at 37° C. and 5% CO2 in a humidified atmosphere overnight. Compounds were added the next day using an Access Labcyte Workstation with a Labcyte Echo 550 or 555 acoustic dispenser and incubated with the cells for 4 or 24 h. Cells were fixed by adding 25 μL fixation buffer (7.4% formaldehyde (Sigma Aldrich F8775), 0.2% Triton TX100 (Sigma Aldrich F93443) in PBS) for 15 minutes at room temperature. After aspirating the fixing solution, the cells were washed once with 25 μL PBS and 25 μL of Blocking Buffer (10% Goat Serum in PBS) were added to each well and incubated for 30 minutes. Cells were washed with PBS and incubated with 20 μL mouse anti-Smarca4 (BRG1) antibody (Cell Signaling #52251) or rabbit anti-Smarca2 (BRM) antibody (Sigma Aldrich HPA029981) in blocking solution (PBS with 10% FCS) for ca. 2-4 h at RT. For detection of the nuclei, 25 μL of 5 μg/mL Hoechst 33342 (stock 10 mg/mL in H2O; Invitrogen H1399) were added together with Alexa Fluor 647 goat anti-mouse IgG (Invitrogen A-21235) or Alexa Fluor 488 goat anti-rabbit IgG (Invitrogen A-11034) in blocking solution and incubated for 60 min at RT. The cell layer was washed with 25 μL PBS, the wells were filled with 25 μL PBS and the plates sealed with an adhesive sheet. The mean intensity at 488 or 647 nm in the nucleus was measured using an Opera Phenix Plus High-Content Screening System (Perkin Elmer), values were normalized to the background and DMSO control and DC50 values were calculated and analyzed using a four-parametric logistic model.

SMARCA2 = biological target: T2, SMARCA2 (Homo sapiens, UniProt P51531); experiment: SMARCA2 degradation analysis by imaging in RKO cells (DC50 A2); format: cell-based; conditions: tables 69, 70, 73, 76-78
T2 construct: endogenous in cells; host or cells: RKO cells (CRL-2577, ATCC)
Experimental: as §1, §2, §3

T1 sequence (P51532 whole entry): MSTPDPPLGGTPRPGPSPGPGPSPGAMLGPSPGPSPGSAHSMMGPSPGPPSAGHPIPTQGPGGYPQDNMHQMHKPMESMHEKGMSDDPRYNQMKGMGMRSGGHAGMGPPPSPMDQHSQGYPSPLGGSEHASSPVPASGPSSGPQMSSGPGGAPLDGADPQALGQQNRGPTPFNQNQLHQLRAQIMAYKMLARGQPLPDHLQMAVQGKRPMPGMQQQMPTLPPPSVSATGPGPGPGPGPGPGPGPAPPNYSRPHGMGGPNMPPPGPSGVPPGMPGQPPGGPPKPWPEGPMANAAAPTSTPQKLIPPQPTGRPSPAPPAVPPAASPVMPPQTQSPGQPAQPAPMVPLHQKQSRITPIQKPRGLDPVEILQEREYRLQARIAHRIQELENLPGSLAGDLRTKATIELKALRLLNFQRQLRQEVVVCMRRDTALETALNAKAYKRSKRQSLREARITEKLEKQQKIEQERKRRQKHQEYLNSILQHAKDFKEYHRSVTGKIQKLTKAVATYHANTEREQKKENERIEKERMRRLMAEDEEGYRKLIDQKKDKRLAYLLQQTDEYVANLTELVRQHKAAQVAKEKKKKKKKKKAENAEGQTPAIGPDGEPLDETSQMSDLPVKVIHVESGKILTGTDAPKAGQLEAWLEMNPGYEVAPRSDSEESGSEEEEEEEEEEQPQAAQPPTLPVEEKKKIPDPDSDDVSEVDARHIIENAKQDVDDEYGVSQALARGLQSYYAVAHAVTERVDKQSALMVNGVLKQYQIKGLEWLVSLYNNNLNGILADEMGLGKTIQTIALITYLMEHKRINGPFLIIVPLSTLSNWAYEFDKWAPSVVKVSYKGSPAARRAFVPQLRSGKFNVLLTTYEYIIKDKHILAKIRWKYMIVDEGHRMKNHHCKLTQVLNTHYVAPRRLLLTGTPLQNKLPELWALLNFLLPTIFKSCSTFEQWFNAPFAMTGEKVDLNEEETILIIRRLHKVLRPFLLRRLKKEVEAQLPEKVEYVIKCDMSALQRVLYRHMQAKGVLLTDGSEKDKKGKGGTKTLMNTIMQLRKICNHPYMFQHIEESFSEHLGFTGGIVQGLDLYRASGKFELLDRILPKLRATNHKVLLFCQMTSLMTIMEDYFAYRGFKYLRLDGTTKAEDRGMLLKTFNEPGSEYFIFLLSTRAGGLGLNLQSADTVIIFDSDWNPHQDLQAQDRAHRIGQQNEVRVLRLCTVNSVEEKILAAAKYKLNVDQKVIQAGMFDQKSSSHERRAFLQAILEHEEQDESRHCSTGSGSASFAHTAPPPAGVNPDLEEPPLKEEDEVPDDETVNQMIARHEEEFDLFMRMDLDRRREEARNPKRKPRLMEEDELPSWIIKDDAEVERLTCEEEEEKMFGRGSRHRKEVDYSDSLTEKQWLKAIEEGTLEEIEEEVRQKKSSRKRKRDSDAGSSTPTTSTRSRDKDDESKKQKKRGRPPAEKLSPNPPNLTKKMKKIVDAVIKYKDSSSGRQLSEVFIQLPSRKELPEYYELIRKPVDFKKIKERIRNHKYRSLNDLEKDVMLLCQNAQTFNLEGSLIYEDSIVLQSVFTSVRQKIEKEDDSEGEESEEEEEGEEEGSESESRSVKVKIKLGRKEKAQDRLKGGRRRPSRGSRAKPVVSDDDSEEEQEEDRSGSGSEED
T2 sequence (P51531 whole entry): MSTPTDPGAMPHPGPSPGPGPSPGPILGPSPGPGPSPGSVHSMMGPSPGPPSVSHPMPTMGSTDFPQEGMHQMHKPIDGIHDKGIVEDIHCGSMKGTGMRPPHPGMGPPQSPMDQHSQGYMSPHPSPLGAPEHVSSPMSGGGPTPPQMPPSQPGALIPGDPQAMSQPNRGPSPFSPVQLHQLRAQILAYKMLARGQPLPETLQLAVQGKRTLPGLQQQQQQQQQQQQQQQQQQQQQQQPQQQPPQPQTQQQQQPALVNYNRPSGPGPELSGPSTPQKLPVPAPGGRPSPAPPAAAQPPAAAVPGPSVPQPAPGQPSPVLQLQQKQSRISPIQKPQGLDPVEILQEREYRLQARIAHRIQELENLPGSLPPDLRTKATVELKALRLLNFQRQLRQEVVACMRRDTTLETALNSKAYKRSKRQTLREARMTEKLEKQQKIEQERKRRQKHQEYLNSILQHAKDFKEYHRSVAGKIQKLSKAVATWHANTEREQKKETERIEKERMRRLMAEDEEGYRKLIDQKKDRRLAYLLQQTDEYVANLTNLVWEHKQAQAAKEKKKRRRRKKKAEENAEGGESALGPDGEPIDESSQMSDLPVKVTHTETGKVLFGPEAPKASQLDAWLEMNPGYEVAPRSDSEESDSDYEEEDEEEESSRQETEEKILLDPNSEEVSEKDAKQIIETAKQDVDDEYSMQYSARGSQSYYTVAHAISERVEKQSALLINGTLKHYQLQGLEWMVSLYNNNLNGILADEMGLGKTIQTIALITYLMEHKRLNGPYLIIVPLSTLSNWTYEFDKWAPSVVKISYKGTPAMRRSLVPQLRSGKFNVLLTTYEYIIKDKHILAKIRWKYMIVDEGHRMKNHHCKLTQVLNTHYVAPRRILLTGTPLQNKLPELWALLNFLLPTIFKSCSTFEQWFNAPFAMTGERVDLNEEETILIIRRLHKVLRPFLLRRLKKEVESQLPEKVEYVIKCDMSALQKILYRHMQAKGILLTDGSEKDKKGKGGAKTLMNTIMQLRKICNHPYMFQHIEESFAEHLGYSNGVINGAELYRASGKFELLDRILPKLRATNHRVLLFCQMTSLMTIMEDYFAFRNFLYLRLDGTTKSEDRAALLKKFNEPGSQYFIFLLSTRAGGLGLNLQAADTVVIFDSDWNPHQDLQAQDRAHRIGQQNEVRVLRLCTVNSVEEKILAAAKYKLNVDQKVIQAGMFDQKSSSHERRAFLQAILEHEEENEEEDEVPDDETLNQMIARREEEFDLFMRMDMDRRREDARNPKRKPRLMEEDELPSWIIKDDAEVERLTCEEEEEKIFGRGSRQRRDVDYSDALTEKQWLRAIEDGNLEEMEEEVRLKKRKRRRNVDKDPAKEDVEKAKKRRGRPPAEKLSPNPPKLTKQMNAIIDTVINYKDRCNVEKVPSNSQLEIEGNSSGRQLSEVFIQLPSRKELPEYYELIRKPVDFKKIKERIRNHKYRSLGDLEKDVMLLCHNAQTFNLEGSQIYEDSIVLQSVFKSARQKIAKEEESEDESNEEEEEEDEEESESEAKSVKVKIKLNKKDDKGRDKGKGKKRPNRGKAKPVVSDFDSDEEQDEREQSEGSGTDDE

| Structure (SMILES) | DC50 (SMARCA4) | DC50 (SMARCA2) |
| --- | --- | --- |
| Cc1ncsc1-c1ccc([C@H](COCCN2CCC(c3cc4c(cc3OC3CCOC3)n3c5cccc(Br)c5c(=O)nc3n4C3CCCC3)CC2)NC(=O)[C@@H]2C[C@@H](O)CN2C(=O)[C@@H](NC(=O)C2(F)CC2)C(C)(C)C)cc1 (stereo partly shown) [Compound 42az] | 800 nM | 36 nM |
| Cc1ncsc1-c1ccc([C@H](CC[C@H](C)CCN2CCC(c3ccc4c(c3)n([C@H]3CCOC3)c3nc(=O)c5c(Br)cccc5n43)CC2)NC(=O)[C@@H]2C[C@@H](O)CN2C(=O)[C@@H](NC(=O)C2(F)CC2)C(C)(C)C)cc1 [Compound 42b] | > 833 nM | 2 nM |
| CCn1c2cc(C3CCN(CCCCC[C@H](NC(=O)[C@@H]4C[C@@H](O)CN4C(=O)[C@@H](NC(=O)C4(F)CC4)C(C)(C)C)c4ccc(-c5scnc5C)cc4)CC3)ccc2n2c3cccc(Br)c3c(=O)nc12 [Compound 42ba] | 22 nM | 4 nM |
| Cc1ncsc1-c1ccc([C@H](COCCN2CCC(c3ccc4c(c3)n(C3CCCC3)c3nc(=O)c5c(Br)cccc5n43)CC2)NC(=O)[C@@H]2C[C@@H](O)CN2C(=O)[C@@H](NC(=O)C2(C)CC2)C(C)(C)C)cc1 [Compound 42bb] | 142 nM | 17 nM |
| Cc1ncsc1-c1ccc([C@H](COCCN2CCC(c3ccc4c(c3)n(C3CCCC3)c3nc(=O)c5c(Br)cccc5n43)CC2)NC(=O)[C@@H]2C[C@@H](O)CN2C(=O)[C@@H](NC(=O)C2(C(F)(F)F)CC2)C(C)(C)C)cc1 [Compound 42bc] | 133 nM | 19 nM |
| Cc1ncsc1-c1ccc([C@H](COCCN2CCC(c3ccc4c(c3)n(C3CCCC3)c3nc(=O)c5c(Br)cccc5n43)CC2)NC(=O)[C@@H]2C[C@@H](O)CN2C(=O)[C@@H](NC(=O)C2(C3CC3)CC2)C(C)(C)C)cc1 [Compound 42bd] | 64 nM | 11 nM |
| Cc1ncsc1-c1ccc([C@H](COCCN2CCC(c3ccc4c(c3)n(C3CCCC3)c3nc(=O)c5c(Br)cccc5n43)CC2)NC(=O)[C@@H]2C[C@@H](O)CN2C(=O)[C@@H](NC(=O)C2(C#N)CC2)C(C)(C)C)cc1 [Compound 42be] | 67 nM | 12 nM |
| COC(=O)C1(C(=O)N[C@H](C(=O)N2C[C@H](O)C[C@H]2C(=O)N[C@@H](COCCN2CCC(c3ccc4c(c3)n(C3CCCC3)c3nc(=O)c5c(Br)cccc5n43)CC2)c2ccc(-c3scnc3C)cc2)C(C)(C)C)CC1 [Compound 42bf] | 87 nM | 8 nM |
| Cc1ncsc1-c1ccc([C@H](COCCN2CCC(c3ccc4c(c3)n(C3CCCC3)c3nc(=O)c5c(Br)cccc5n43)CC2)NC(=O)[C@@H]2C[C@@H](O)CN2C(=O)[C@@H](NC(=O)C23CCCCC2C3)C(C)(C)C)cc1 (stereo partly shown) [Compound 42bh] | 153 nM | 6 nM |
| Cc1ncsc1-c1ccc([C@H](CCCN2CCC(c3ccc4c(c3)n(C3CCCC3)c3nc(=O)c5c(N)cccc5n43)CC2)NC(=O)[C@@H]2C[C@@H](O)CN2C(=O)[C@@H](NC(=O)C2(N3CCCC3)CC2)C(C)(C)C)cc1 [Compound 42bi] | 6 nM | 3 nM |
| CC(=O)O[C@@H]1C[C@@H](C(=O)N[C@@H](CCCCCN2CCC(c3ccc4c(c3)n(C3CCCC3)c3nc(=O)c5c(Br)cccc5n43)CC2)c2ccc(-c3scnc3C)cc2)N(C(=O)[C@@H](NC(=O)C2(F)CC2)C(C)(C)C)C1 [Compound 42bj] | 83 nM | 8 nM |
| CCCCC(=O)O[C@@H]1C[C@@H](C(=O)N[C@@H](CC[C@H](C)CCN2CCC(c3ccc4c(c3)n(C3CCCC3)c3nc(=O)c5c(Br)cccc5n43)CC2)c2ccc(-c3scnc3C)cc2)N(C(=O)[C@@H](NC(=O)C2(F)CC2)C(C)(C)C)C1 [Compound 42bk] | 60 nM | 3 nM |
| Cc1ncsc1-c1ccc([C@H](CCCCCN2CCC(c3ccc4c(c3)n(C3CCCC3)c3nc(=O)c5c(Br)cccc5n43)CC2)NC(=O)[C@@H]2C[C@@H](O)CN2C(=O)[C@@H](NC(=O)C2(F)CC2)C(C)(C)C2CC2)cc1 [Compound 42c] | 11 nM | 0.7 nM |
| Cc1ncsc1-c1ccc([C@H](CC[C@@H](C)CCN2CCC(c3ccc4c(c3)n(C3CCCC3)c3nc(=O)c5c(Br)cccc5n43)CC2)NC(=O)[C@@H]2C[C@@H](O)CN2C(=O)[C@@H](NC(=O)C2(F)CC2)C(C)(C)C)cc1 [Compound 42d] | 7 nM | 0.7 nM |
| Cc1ncsc1-c1ccc([C@H](CCC(O)CCN2CCC(c3ccc4c(c3)n(C3CCCC3)c3nc(=O)c5c(Br)cccc5n43)CC2)NC(=O)[C@@H]2C[C@@H](O)CN2C(=O)[C@@H](NC(=O)C2(F)CC2)C(C)(C)C)cc1 (stereo partly shown) [Compound 42e] | 80 nM | 4.1 nM |
| Cc1ncsc1-c1ccc([C@H](CCCCCN2CCC(c3ccc4c(c3)n([C@H]3CC[C@@H](O)C3)c3nc(=O)c5c(Br)cccc5n43)CC2)NC(=O)[C@@H]2C[C@@H](O)CN2C(=O)[C@@H](NC(=O)C2(F)CC2)C(C)(C)C)cc1 [Compound 42f] | 46 nM | 2 nM |
| Cc1ncsc1-c1ccc([C@H](CCC(C)(C)CCN2CCC(c3ccc4c(c3)n(C3CCCC3)c3nc(=O)c5c(Br)cccc5n43)CC2)NC(=O)[C@@H]2C[C@@H](O)CN2C(=O)[C@@H](NC(=O)C2(F)CC2)C(C)(C)C)cc1 [Compound 42g] | 40 nM | 3 nM |
| Cc1ncsc1-c1ccc([C@H](CCCCCN2CCC(c3ccc4c(c3)n(C3CCCC3)c3nc(=O)c5c(Br)cccc5n43)CC2)NC(=O)[C@@H]2C[C@@H](O)CN2C(=O)[C@@H](NC(=O)C2(F)CC2)C(C)(C)C)cc1 [Compound 42h] | 4 nM | 0.3 nM |
| Cc1ncsc1-c1ccc([C@H](COC(C)(C)CN2CCCN(c3ccc4c(c3)n(C3CCCC3)c3nc(=O)c5c(Br)cccc5n43)CC2)NC(=O)[C@@H]2C[C@@H](O)CN2C(=O)[C@@H](NC(=O)C2(F)CC2)C(C)(C)C)cc1 [Compound 42i] | 24 nM | 9 nM |
| CCC(C)(C)[C@H](NC(=O)C1(F)CC1)C(=O)N1C[C@H](O)C[C@H]1C(=O)N[C@@H](COC(C)(C)CN1CCN(c2ccc3c(c2)n(C2CCCC2)c2nc(=O)c4c(Br)cccc4n32)CC1)c1ccc(-c2scnc2C)cc1 [Compound 42j] | > 833 nM | 4 nM |
| Cc1ncsc1-c1ccc([C@H](COC(C)(C)CN2CCC(c3ccc4c(c3)n(C3CCCC3)c3nc(=O)c5c(Br)cccc5n43)CC2)NC(=O)[C@@H]2C[C@@H](O)CN2C(=O)[C@@H](NC(=O)C2(F)CC2)C(C)(C)C)cc1 [Compound 42l] | > 833 nM | 3 nM |
| Cc1ncsc1-c1ccc([C@H](CO[C@H](C)CN2CCC(c3ccc4c(c3)n(C3CCCC3)c3nc(=O)c5c(Br)cccc5n43)CC2)NC(=O)[C@@H]2C[C@@H](O)CN2C(=O)[C@@H](NC(=O)C2(F)CC2)C(C)(C)C)cc1 [Compound 42m] | > 833 nM | 4 nM |
| Cc1ncsc1-c1ccc([C@H](COC(C)(C)CN2CCC(c3ccc4c(c3)n(C3CCCC3)c3nc(=O)c5c(Br)cccc5n43)CC2)NC(=O)[C@@H]2C[C@@H](O)CN2C(=O)[C@@H](NC(=O)C2(F)CC2)C2(C)CCCC2)cc1 [Compound 42n] | 800 nM | 3 nM |
| Cc1ncsc1-c1ccc([C@H](COCCN2CCC(c3ccc4c(c3)n(C3CCCC3)c3nc(=O)c5c(Br)cccc5n43)CC2)NC(=O)[C@@H]2C[C@@H](O)CN2C(=O)[C@@H](NC(=O)C2(F)CC2)C(C)(C)C)cc1 [Compound 42o] | 90 nM | 5 nM |
| Cc1ncsc1-c1ccc([C@H](CO[C@H](C)CN2CCC(c3ccc4c(c3)n(C3C[C@H](C)[C@@H](C)C3)c3nc(=O)c5c(Br)cccc5n43)CC2)NC(=O)[C@@H]2C[C@@H](O)CN2C(=O)[C@@H](NC(=O)C2(F)CC2)C(C)(C)C)cc1 [Compound 42p] | > 833 nM | 13 nM |
| Cc1ncsc1-c1ccc([C@H](CCCN2CCC(c3ccc4c(c3)n(C3CCCC3)c3nc(=O)c5c(Br)cccc5n43)CC2)NC(=O)[C@@H]2C[C@@H](O)CN2C(=O)[C@@H](NC(=O)C2(F)CC2)C(C)(C)C)cc1 [Compound 42q] | 1 nM | 0.4 nM |
| Cc1ncsc1-c1ccc([C@H](CO[C@H](C)CN2CCC(c3ccc4c(c3)n(C3CCCC3)c3nc(=O)c5c(Cl)cccc5n43)CC2)NC(=O)[C@@H]2C[C@@H](O)CN2C(=O)[C@@H](NC(=O)C2(F)CC2)C23CC4CC(CC(C4)C2)C3)cc1 [Compound 42r] | 27 nM | 2 nM |
| Cc1ncsc1-c1ccc([C@H](COCCCCCN2CCC(c3ccc4c(c3)n(C3CCCC3)c3nc(=O)c5c(Br)cccc5n43)CC2)NC(=O)[C@@H]2C[C@@H](O)CN2C(=O)[C@@H](NC(=O)C2(F)CC2)C(C)(C)C)cc1 [Compound 42s] | 8 nM | 0.7 nM |
| Cc1ncsc1-c1ccc([C@H](COCCN2CCC(c3cc4c(cc3OC[C@@H]3CCCO3)n3c5cccc(Br)c5c(=O)nc3n4C3CCCC3)CC2)NC(=O)[C@@H]2C[C@@H](O)CN2C(=O)[C@@H](NC(=O)C2(F)CC2)C(C)(C)C)cc1 [Compound 42t] | 67 nM | 3 nM |
